Source: patent US20230063457A1, “DNA-PK INHIBITING COMPOUNDS” (Provincial Health Services Authority, priority 2019, published 2023)

What was measured:
DNA-PK kinase = DNA-PK kinase (Homo sapiens, UniProt P78527); experiment: Inhibition of DNA-PK kinase activity (ADP-Glo); type: biochemical; conditions: averaged values over all measurements on all batches; 150 μM ATP, 1 hour at 25° C.
Description: Inhibition of DNA-PK Kinase Activity Assay buffer was 50 mM Hepes pH 7.5 containing 0.1 mg/ml BSA (albumin from bovine serum), 50 μM DTT (dithiothreitol), 20 mM MgCl2 and 10 μg/ml calf thymus DNA (activation buffer). Kinase reaction was carried out in OptiPlate 384 plates (PerkinElmer 6007299). All compounds tested were dissolved in dimethyl sulfoxide (DMSO) and further dilutions were made in assay buffer. Final DMSO concentration was 1% (v/v). Pre-incubation consisted of compound (1% DMSO in control and blank wells) and 24 ng/well DNA-PK kinase to allow the compounds to bind the enzyme (with buffer in the blank wells) for 15 minutes; after this time 150 μM Adenosine-5′-triphosphate (ATP) and 0.2 μg/μl DNA-PK substrate were added to commence the kinase reaction. Incubations were carried out for 1 hour at 25° C. Kinase activity was determined by using ADP-Glo™ reagent from Promega according to the manufacturer's instructions. The light generated was measured using a luminometer (EnVision, PerkinElmer). Signal obtained in the wells containing blank samples was subtracted from all other wells and IC50 values were determined by fitting a sigmoidal curve to % inhibition of control versus Log10 compound concentration.

[1] = target: T1, Phospho-DNA-PK in FaDu Cells (Homo sapiens, UniProt P78527); experiment: Effect of compounds on phospho-DNA-PK in FaDu cells (MesoScale sandwich immunoassay); type: cell-based; conditions: 1 hour pre-incubation, 1 μg/ml Neocarzinostatin 2 hours, averaged values, read-out: MSD FaDu IC50
T1 construct: host or cells: FaDu
Description: Effect of Compounds on Phospho-DNA-PK in FaDu Cells
All compounds tested were dissolved in DMSO and further dilutions were made in culture medium. Final DMSO concentration was 0.3% (v/v). The human FaDu cells (ATCC) were cultured in MEM medium supplemented with Glutamax and 10% fetal calf serum (PAA). Cells were routinely maintained at densities of 0.2×10^6 cells per ml at 37° C. in a humidified 5% CO2, 95% air atmosphere. Cells were passaged twice a week, splitting back to obtain the low density. Cells were seeded in 96 well plates (Corning 3904) at 1×10^6 cells per ml media in a volume of 50 μl per well. Seeded cells were incubated at 37° C. in a humidified 5% CO2, 95% air atmosphere for 24 hours. Compounds were added (25 μl) to the cells and pre-incubated for 1 hour. 1 μg/ml DNA-damaging agent Neocarzinostatin (NCS) was added (25 μl) to a final volume of 100 μl and incubated for 2 hours at 37° C. in a humidified 5% CO2, 95% air atmosphere. After this period of time plates were removed from the incubator and the 100 μl dilutions were removed from the wells gently, prior to the addition of 75 μl cold RIPA lysis buffer with protease and phosphatase inhibitors to achieve the cells lysis, followed by shaking on a plate shaker at 4° C. for 30 minutes. At the end of this incubation, lysate was assessed for phospho-DNA-PK levels by sandwich immune-assay carried out in anti-mouse antibody coated MesoScale plates. […] Signal obtained in the wells containing blank samples was subtracted from all other wells and IC50 values were determined by fitting a sigmoidal curve to % inhibition of control versus Logo compound concentration.

| IC50 (DNA-PK kinase) [µM] | IC50 [1] [µM] | Compound |
| --- | --- | --- |
| 0.05 | 3.5 | c1cnc(NCC2CCN(c3nc(N4CCOCC4)cc4ncccc34)C2)nc1 (centres unmarked) [Example 11] |
| 0.039 | 0.743 | c1cnc(NCC2CCN(c3nc(N4CCOCC4)cc4ncccc34)CC2)nc1 [Example 2] |
| 0.063 | 7.31 | c1cnnc(NCC2CCN(c3nc(N4CCOCC4)cc4ncccc34)CC2)c1 [Parent compound 131] |
| 0.14 | 3.18 | c1cnc2cc(N3CCOCC3)nc(N3CCC(CNc4ccncn4)CC3)c2c1 [Example 120] |
| 0.071 | 2.84 | c1cnc(NC2CCC3CN(c4nc(N5CCOCC5)cc5ncccc45)CC32)nc1 (centres unmarked) [Example 13] |
| 0.213 | 9.35 | c1cnc(NCc2cnn(-c3nc(N4CCOCC4)cc4ncccc34)c2)nc1 [Example 24] |
| 0.039 | 0.905 | Cc1cnc(NCC2CCN(c3nc(N4CCOCC4)cc4ncccc34)CC2)nc1 [Example 102] |
| 0.164 | 7.96 | c1cnc(NCCC2CN(c3nc(N4CCOCC4)cc4ncccc34)C2)nc1 [Example 21] |
| 0.148 | 4.45 | c1cnc(N2CCC3CN(c4nc(N5CCOCC5)cc5ncccc45)CC32)nc1 (centres unmarked) [Example 17] |
| 0.03 | 1.39 | c1cnc(N2CC(COc3nc(N4CCOCC4)cc4ncccc34)C2)nc1 [Example 128] |
| 0.139 | 18.6 | c1cnc(NC2CCN(c3nc(N4CCOCC4)cc4ncccc34)CC2)nc1 [Example 16] |
| 0.066 | 2.37 | N#Cc1cnc(NCC2CCN(c3nc(N4CCOCC4)cc4ncccc34)CC2)nc1 [Example 107] |
| 0.198 | 1.55 | c1cnc(N2CCC3(CCN(c4nc(N5CCOCC5)cc5ncccc45)C3)C2)nc1 (centres unmarked) [Example 22] |
| 0.159 | 8.87 | c1cnc(NC2CCCCN(c3nc(N4CCOCC4)cc4ncccc34)C2)nc1 (centres unmarked) [Example 20] |
| 0.203 | 13.8 | c1cnc(N2CCC(Oc3nc(N4CCOCC4)cc4ncccc34)CC2)nc1 [Example 127] |
| 0.185 | 4.36 | c1ccc(NCC2CCN(c3nc(N4CCOCC4)cc4ncccc34)CC2)nc1 [Example 122] |
| 0.036 | 0.702 | c1cnc(NCC2CN(c3nc(N4CCOCC4)cc4ncccc34)C2)nc1 [Parent compound 98] |

The next lines start with the compound.

| Compound | IC50 (DNA-PK kinase) [µM] | IC50 [1] [µM] |
| --- | --- | --- |
| FC(F)(F)c1cnc(NCC2CCN(c3nc(N4CCOCC4)cc4ncccc34)CC2)nc1 [Example 121] | 0.143 | 3.52 |
| c1cnc2cc(N3CCOCC3)nc(O[C@H]3CC[C@@H](n4nccn4)CC3)c2c1 [Example 81] | 0.01 | 0.507 |
| c1cnc2cc(N3CCOCC3)nc(O[C@H]3CC[C@@H](n4cncn4)CC3)c2c1 [Example 80] | 0.007 | 0.24 |
| C[C@H]1COCCN1c1cc2ncccc2c(O[C@H]2CC[C@@H](c3nc[nH]n3)CC2)n1 [Example 67] | 0.032 | 0.891 |
| c1cnc2cc(N3CCOCC3)nc(OCC3CN(c4ncn[nH]4)C3)c2c1 [Parent compound 151] | 0.082 | 1.69 |
| O=C1NCC(CNc2nc(N3CCOCC3)cc3ncccc23)CO1 (centres unmarked) [Parent compound 97] | 0.027 | 3.33 |
| c1cnc(NCCCCOc2nc(N3CCOCC3)cc3ncccc23)nc1 [Example 8] | 0.279 | 6.66 |
| c1cnc2cc(N3CCOCC3)nc(OC3CCN(c4ncn[nH]4)CC3)c2c1 [Example 155] | 0.134 | 7.86 |
| Oc1cnc2cc(N3CCOCC3)nc(O[C@H]3CC[C@@H](n4cc(F)cn4)CC3)c2c1 [Example 163] | 0.002 | 0.134 |
| N#Cc1cccc(-c2ccnc(NCC3CCN(c4nc(N5CCOCC5)cc5ncccc45)CC3)n2)n1 [Example 119] | 0.136 | 2.41 |
| CS(=O)(=O)N1CCC(Oc2nc(N3CCOCC3)cc3ncccc23)CC1 [Example 143] | 0.11 | 1.8 |
| Oc1cnc2cc(N3CCOCC3)nc(O[C@H]3CC[C@@H](c4ccccc4)CC3)c2c1 [Example 165] | 0.031 | 1.17 |
| CN1CC(CNc2nc(N3CCOCC3)cc3ncccc23)COC1=O (centres unmarked) [Parent compound 150] | 0.066 | 1.92 |
| c1cnc2cc(N3CCOCC3)nc(N[C@H]3CC[C@@H](c4nnc[nH]4)CC3)c2c1 [Example 58] | 0.027 | 1.59 |
| CNC(=O)N1CC(COc2nc(N3CCOCC3)cc3ncccc23)C1 [Example 148] | 0.171 | 4.92 |
| c1cnc2cc(N3CCOCC3)nc(O[C@H]3C[C@@H](c4ncc[nH]4)C3)c2c1 [Example 87] | 0.051 | 1.16 |
| CS(=O)(=O)[C@H]1CC[C@@H](Oc2nc(N3CCOCC3)cc3ncccc23)CC1 [Example 82] | 0.141 | 1.89 |
| C[C@@H]1CN(c2cc3ncccc3c(O[C@H]3CC[C@@H](c4nc[nH]n4)CC3)n2)CCO1 [Example 66] | 0.003 | 0.265 |
| Fc1cnn([C@H]2CC[C@@H](Oc3nc(N4CCOCC4)cc4ncccc34)CC2)c1 [Example 78] | 0.004 | 0.195 |

| Compound | IC50 (DNA-PK kinase) [µM] | IC50 [1] [µM] |
| --- | --- | --- |
| CC(C)(C)OC(=O)N1CCN(c2nc(N3CCOCC3)cc3ncccc23)CC1 [Example 19] | 0.159 | 6.56 |
| C[C@@H]1COCCN1c1cc2ncccc2c(O[C@H]2CC[C@@H](c3nc[nH]n3)CC2)n1 [Example 69] | 0.261 | 5.05 |
| c1cnc2cc(N3CCOCC3)nc(O[C@H]3CC[C@@H](c4nnn[nH]4)CC3)c2c1 [Example 74] | 0.003 | 0.759 |
| c1cnc2cc(N3CCOCC3)nc(O[C@H]3CC[C@@H](c4nnc[nH]4)CC3)c2c1 [Example 71] | 0.002 | 0.062 |
| Fc1c[nH]c([C@H]2CC[C@@H](Oc3nc(N4CCOCC4)cc4ncccc34)CC2)n1 [Example 76] | 0.011 | 0.143 |
| NC(=O)[C@H]1CC[C@@H](COc2nc(N3CCOCC3)cc3ncccc23)CC1 [Example 6] | 0.074 | 2.01 |
| Cn1cnc([C@H]2CC[C@@H](Oc3nc(N4CCOCC4)cc4ncccc34)CC2)n1 [Example 72] | 0.011 | 0.218 |
| CNC(=O)c1ccnc(NCC2CCN(c3nc(N4CCOCC4)cc4ncccc34)CC2)n1 [Example 105] | 0.051 | 1.16 |
| N#C[C@H]1CC[C@@H](Oc2nc(N3CCOCC3)cc3ncccc23)CC1 [Example 4] | 0.037 | 1.83 |
| c1cnc2cc(N3CCOCC3)nc(NCC3CCN(c4nnc[nH]4)CC3)c2c1 [Parent compound 152] | 0.019 | 5.79 |
| Cc1noc([C@H]2CC[C@@H](Oc3nc(N4CCOCC4)cc4ncccc34)CC2)n1 [Example 5] | 0.021 | 1.37 |
| Brc1cnc2cc(N3CCOCC3)nc(O[C@H]3CC[C@@H](n4ccnc4)CC3)c2c1 [Example 54] | 0.003 | 0.182 |
| CN(C)S(=O)(=O)n1ccnc1C1CCN(c2nc(N3CCOCC3)cc3ncccc23)CC1 [Example 14] | 0.073 | 4.47 |
| Cc1nnc([C@H]2CC[C@@H](Oc3nc(N4CCOCC4)cc4ncccc34)CC2)[nH]1 [Example 70] | 0.001 | 0.113 |
| C[C@H]1CN(c2ncn[nH]2)CC[C@@H]1Oc1nc(N2CCOCC2)cc2ncccc12 (single isomer, unassigned) [Parent compound 158] | 0.102 | 10 |
| CCCCc1nc2cc(N3CCOCC3)nc(O[C@H]3CC[C@@H](n4cc(F)cn4)CC3)c2cc1O [Parent compound 175] | 0.018 | 0.464 |
| Cn1cc([C@H]2CC[C@@H](Oc3nc(N4CCOCC4)cc4ncc(O)cc34)CC2)cn1 [Example 166] | 0.004 | 0.19 |
| Oc1cnc2cc(N3CCOCC3)nc(O[C@H]3CC[C@@H](c4cscn4)CC3)c2c1 [Example 167] | 0.004 | 0.219 |
| CC1CN(c2ncn[nH]2)CCC1Oc1nc(N2CCOCC2)cc2ncccc12 (centres unmarked) [Example 157] | 0.16 | 3 |
